# Experimental data published in PubChem BioAssay AID849 (SRMLSC, 2007).
# Active and inactive are the calls of the source. The rule behind the calls is not given here.
# Tested on: Saccharomyces cerevisiae lifespan shortening, growth inhibition
# Assay: Saccharomyces cerevisiae growth inhibition potency – dose response (AID 849);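 note: yeast growth read as optical density after two days at 30 degrees C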
row,SMILES,IC50
1,Cc1nc2ccccc2c2c1C(=O)N(C)C2=O,10.9 µM
2,Oc1ccc(-c2csc(-c3ccccc3)n2)cc1O,27.5 µM
3,O=C1OCC(CO)(CO)N=C1NNc1cc(Cl)ccc1Cl,16.2 µM
4,COc1ccccc1-n1c(=O)oc2ccc(Cl)cc2c1=O,> 100 µM (inactive)
5,Cc1cccc(OCCCOc2cccc3cccnc23)c1C,26.5 µM
6,CCOC(=O)c1cnc(-n2nc(C)cc2C)nc1NNc1cc(C)nc(-c2ccccc2)n1,> 100 µM (inactive)
7,CSC1=NSC2=NC(=O)/C(=C\c3coc4ccccc4c3=O)C(=N)N12,> 100 µM (inactive)
8,CCn1c2ccccc2c2cc(Nc3cc(C)nc4ncnn34)ccc21,> 100 µM (inactive)
9,COc1ccccc1N1CCN(Cc2cc(Br)c(O)c3ncccc23)CC1,15.8 µM
10,CC1(CCc2ccccc2)NC(=S)N(c2ccccc2)N1 (centres undefined),14.1 µM
11,O=c1c2sc(-c3ccccc3)cc2nc2n1CCC2,13.8 µM
12,C/C(=N\Nc1ccc(Cl)cc1)c1ccccn1,43.5 µM
13,C=CCN1C(C(=O)c2ccccc2)=C(OC(=O)COc2ccccc2)c2ccccc2S1(=O)=O,26.9 µM
14,CC1CCc2c(sc3nc(CN4CCOCC4)nc(Sc4ccccc4)c23)C1 (centres undefined),> 100 µM (inactive)
15,O=c1cc(-c2ccccc2)n(S(=O)(=O)c2ccccc2)o1,39.8 µM
16,Cn1c(SCC(=O)N/N=C/c2ccc([N+](=O)[O-])s2)nnc1-c1ccc(Cl)cc1,25.3 µM
17,COc1ccccc1NC(=O)Cc1noc(CSc2cccc[n+]2[O-])n1,23.2 µM
18,CCOC(=O)C(=NCCCN(C)C)NNc1ccc(Br)cc1,11.1 µM
19,CCCC1COC(Cn2cncn2)(c2ccc(Cl)cc2Cl)O1 (centres undefined),0.274 µM
20,CC1=CC(=O)c2ccccc2C1=O,18.5 µM

row,SMILES,IC50
1,Cc1cccc(N=Nc2ccc(O)c3ncccc23)c1,34.8 µM
2,Cc1cccc(OCCn2cc(/C=N/NC(=O)c3ccncc3)c3ccccc32)c1,> 100 µM (inactive)
3,Cc1cc(C)c2c(=O)n(CC(=O)N3CCC(Cc4ccccc4)CC3)sc2n1,> 100 µM (inactive)
4,Cc1cc2c(cc(C(=O)O)n2C)s1,36.5 µM
5,CCc1nc2ccccc2c(=O)n1NC(=O)c1c(O)c2cccc3c2n(c1=O)CCC3,> 100 µM (inactive)
6,Oc1ccc(/C=C/c2nc(-c3ccccc3O)n(-c3ccccc3)n2)cc1,> 100 µM (inactive)
7,Cc1cc(=O)[nH]c(SCc2nc3ccccc3s2)n1,> 100 µM (inactive)
8,Cc1ccc(-c2nc(N)sc2-c2ccccc2)cc1C,> 100 µM (inactive)
9,Cc1ccc(N=Cc2cccc(O)c2O)c(C)c1,13.1 µM
10,O=C(N/N=C/c1cc2c3c(c1O)CCCN3CCC2)c1ccccc1O,37.5 µM
11,COC1=C(c2ccccc2)C(=O)c2ccccc2C1=O,16.2 µM
12,C=CCNC1=C(Cl)C(=O)c2ccccc2C1=O,> 100 µM (inactive)
13,CCCCC(=O)NNC(=S)NC(=O)CCC,32.3 µM
14,Clc1ccc2nnnc(-c3ccccc3)c2c1,38.8 µM
15,O=C(OCn1ncc(Cl)c(Cl)c1=O)c1cccc(C(F)(F)F)c1,> 100 µM (inactive)
16,C=CCC1c2cccc(C(=O)O)c2C(=O)N1c1cccc(C)c1 (centres undefined),2.79 µM
17,Cc1cc2sc(C(=O)O)c(C)c2s1,41.6 µM
18,CC(=O)NC(c1cccs1)c1cc([N+](=O)[O-])c2cccnc2c1O (centres undefined),> 100 µM (inactive)
19,O=C1C2C3C=CC(CO)(O3)C2C(=O)N1c1ccccc1-c1ccccc1 (centres undefined),> 100 µM (inactive)
20,O=C(N/N=C\c1cccc([N+](=O)[O-])c1O)C1COc2ccccc2O1 (centres undefined),24.8 µM

row,SMILES,IC50
1,C(=N\c1ncnc2sccc12)/NOCc1ccccc1,23.2 µM
2,Cc1cc(C(=O)COC(=O)c2ccc[nH]c2=O)c(C)n1-c1ccccc1,21.3 µM
3,CCC1C(=O)N=C(SCC(=O)Nc2ccccc2)NC1=O (centres undefined),> 100 µM (inactive)
4,CCCCCCN1N=C(C)C(C(=O)c2ccc(Cl)cc2)C1=O (centres undefined),16.4 µM
5,CCCOC(=O)c1ccc(Oc2cn[nH]c2-c2ccc(OC)cc2O)cc1,26 µM
6,OC(CNCCc1ccc(C(F)(F)F)cc1)COc1ccc2ccccc2c1 (centres undefined),> 100 µM (inactive)
7,N#CC(c1cccc(Cl)c1)c1ccc2c(C(F)(F)F)cc(C(F)(F)F)nc2n1 (centres undefined),> 100 µM (inactive)
8,Clc1ccc2[nH]c3c(c2c1)CCc1cn[nH]c1-3,12.5 µM
9,O=C(Oc1ccc(Cl)c2cccnc12)c1ccco1,14.6 µM
10,CCc1ccc2c(c1)C1(NN=C(c3ccccc3)S1)C(=O)N2 (centres undefined),24.6 µM
11,CC1(C)C[C@H]2C=C(C=O)[C@]3(C=O)C[C@]3(C)[C@H]2C1,5.25 µM
12,CCc1ccc2c(c1)C1(NN=C(c3ccc(C)cc3)S1)C(=O)N2 (centres undefined),23.8 µM
13,CC1=NOC(=O)/C1=C\c1ccc(-c2ccc(Cl)cc2Cl)o1,> 100 µM (inactive)
14,COc1ccc2nc(NC(=S)N(C)C)sc2c1,> 100 µM (inactive)
15,O=C(O)c1cc2c(s1)-c1ccccc1OC2,42.2 µM
16,O=C(c1ccccc1)c1ccc2nc(N3CCCCC3)c3nncn3c2c1,> 100 µM (inactive)
17,O=C(Oc1c(Cl)cc(Cl)c2cccnc12)c1cccc([N+](=O)[O-])c1,2.95 µM
18,CCN1CCN(C(=O)C(NS(=O)(=O)c2ccc3nc(C)sc3c2)C(C)C)CC1 (centres undefined),> 100 µM (inactive)
19,N#Cc1ccccc1NC(=O)c1ccc2c(Cl)c3c(nc2c1)CCCC3,> 100 µM (inactive)
